Key:
HL-60 cells [1] = test: Determination of cytotoxicity / MTT test; format: cell-based
From the text: (§1) In order to determine anti-carcinogenic effect of the inventive compound acute promyelocytic leukaemia (HL-60) and chronic myelogenous leukaemia (K-562) cells were used to prepare cancer cell cultures under suitable conditions. Both leukemic cell lines were subjected to the following methods: • Determination of cytotoxicity / MTT test; • Determination of apoptotic effect using flow cytometry device with Annexin V-FITC/7-AAD kit; • Determination of apoptotic effect using flow cytometry device with caspase-3/7 activation; • Determination of mitochondrial membrane integrity of cells using JC-1 dyeing method; • Determination of apoptotic DNA using DNA fragmentation method with agarose gel; • Determination of NF-kB and c-myc mRNA expression levels using real time PCR (polymerase chain reaction) method; • Gene panel study using RT-PCR method.

K562 cells [2] = test: Determination of cytotoxicity / MTT test; format: cell-based
From the text: as §1

HL-60 cell line = test: Apoptotic effect by flow cytometry with Annexin V-FITC/7-AAD kit; format: cell-based
From the text: as §1

K562 cells [3] = test: as above; format: cell-based
From the text: as §1

HL-60 cells [4] = test: Mitochondrial membrane integrity, JC-1 dyeing method; format: cell-based; settings: 12.5 µM (increase starting from 1.5 µM)
From the text: as §1

K562 cells [5] = test: as above; format: cell-based; settings: 12.5 µM
From the text: as §1

K562 cells [6] = test: Apoptotic effect by flow cytometry with caspase-3/7 activation; format: cell-based; settings: 12.5 µM, 24 hours of incubation
From the text: as §1

[7] = test system: NF-kB and c-myc mRNA expression in HL-60 cells; test: NF-kB and c-myc mRNA expression levels by real time PCR; format: cell-based; settings: RT-PCR
From the text: as §1

[8] = test system: NF-kB and c-myc mRNA expression in K562 cells; test: as above; format: cell-based; settings: RT-PCR
From the text: as §1

[9] = test system: NFkB-1, p53, PIK3CA, BCL-3, ICAM1, KRAS and BCR genes in HL-60 cells; test: Gene panel study by RT-PCR; format: cell-based; settings: in comparison to control and Bortezomib groups, decrease more effective than in K562 cells
From the text: as §1
(§2) The genes used in gene panel study with RT-PCR method include; NFKB-1, TNF, RELA, NMI, TP53, IL-6, TP53, PIK3CA, NFKB-2, BCL-3, NFKBIA, RELB, ICAM1, IL-8, KRAS, BCR, GAPDH.

[10] = test system: NFkB-1, p53, PIK3CA, BCL-3, ICAM1, KRAS and BCR genes in K562 cells; test: Gene panel study by RT-PCR; format: cell-based; settings: in comparison to control and Bortezomib groups
From the text: as §1, §2

[11] = test system: NF-kB levels in MM.1S cells; settings: 12 nmol/mL, 12th and 24th hours of incubation, ELISA; cited from earlier work
[12] = test system: NF-kB in HCT116 colon cancer cells; settings: cited from earlier work
[13] = test system: NF-kB in HT-29 colon cancer cells; settings: cited from earlier work
NF-kB in Caco2 cells = settings: cited from earlier work

(4-(2-amino-2-(10,11-dioxo-10,11-dihydro-5H-imidaso[1,5,4,3-lmn][1,10]phenanthrolin-5-il]ethyl]phenyl]boronic acid [inventive compound]
IC50 (HL-60 cells [1]; 24th hour): 2160 nM
IC50 (HL-60 cells [1]; 48th hour): 2850 nM
IC50 (K562 cells [2]; 24th hour): 2620 nM
IC50 (K562 cells [2]; 48th hour): 3410 nM
early apoptotic effect (HL-60 cell line; Annexin-V/7-AAD): has not displayed early apoptotic effect
necrotic cell rates (HL-60 cell line; concentrations of 3.12 µM and more, compared to control): increase compared to control
apoptotic cell ratio (K562 cells [3]; K562 cells, 1.5 µM): 13.7%
early and late apoptotic cell rate (K562 cells [3]; K562 cells, 12.5 µM): 38.2%
apoptotic effect (K562 cells [3]; K562 cells, 1.5, 3.12, 6.25 and 12.5 µM, 24th hour): increased the apoptotic effect
early-late apoptotic and necrotic cell rates (K562 cells [3]; K562 cells, concentrations of 6.5 and 12.5 µM, compared to control): increase compared to control
ratio of JC-1 positive cells (HL-60 cells [4]): 37.1%
ratio of JC-1 positive cells (K562 cells [5]): 14.7%
increase in the ratio of caspase 3/7 positive cells, K562 cells in comparison to HL-60 cells (K562 cells [6]): 2 times
c-myc expression [7]: decreased
expression of NF-kB gene [7]: decreases expression
expression of NF-kB gene [8]: decreases expression
c-myc expression ([8]; versus control group): higher than control group values
expression of NFkB-1, p53, PIK3CA, BCL-3, ICAM1, KRAS and BCR genes [9]: decreases expression
expression of NFkB-1, p53, PIK3CA, BCL-3, ICAM1, KRAS and BCR genes [10]: decreases expression

CC(C)C[C@H](NC(=O)CNC(=O)c1cc(Cl)ccc1Cl)B(O)O [MLN2238]
NF-kB levels [11]: significant decreases

CC(C)C[C@H](NC(=O)[C@H](Cc1ccccc1)NC(=O)c1cnccn1)B(O)O [Bortezomib, reference compound]
early apoptotic cell ratio (K562 cells [3]; K562 cells, 3.12 µM, 24th hour): 18.1%
expression of NF-kB gene [7]: decreases expression
expression of NF-kB gene [8]: decreases expression
NF-kB inhibition [12]: NF-kB inhibition was observed
NF-kB inhibition [13]: NF-kB inhibition was observed
NF-kB inhibition (NF-kB in Caco2 cells): not observed

Source: EP3018135A1, “A COMPOUND WITH ANTI-CARCINOGENIC EFFECT AND A METHOD FOR PRODUCTION OF THIS COMPOUND” (Ulusal Bor Arastirma Enstitusu, priority 2014, dated 2016)
